Results reported in publication PMC9721424, “Novel N-methylsulfonyl-indole derivatives: biological activity and COX-2/5-LOX inhibitory effect with improved gastro protective profile and reduced cardio vascular risks” (Journal of Enzyme Inhibition and Medicinal Chemistry, 2022).
Marks after values point to notes of the source that are not given here.

Tests used:
heart = assay: Histopathological examination of the heart; type: in vivo; conditions: rats, two weeks administration, H&E stain
Description: (§1) Eighteen rats were divided into three groups at random (6 animals in each group). The first group was given a vehicle and served as normal control. […] Ketamine (100 mg/kg) was used to anaesthetise the animals on the 15th day. Blood samples were obtained from the retro orbital, allowed to clot, centrifuged at 1000 g for 15 min, and utilised to examine heart function biomarkers (LDH, CK-MB, and troponin). The abdomen of each rat was opened, and the heart was extracted and washed in ice-cold physiological saline before being harnessed for histological investigation.

[1] = test system: heart function biomarkers (LDH, CK-MB, and troponin); assay: Cardiac function biomarkers in rat serum; type: in vivo, rats; conditions: 50 mg/kg/day p.o. for 2 weeks, mean ± SEM
Description: as §1

stomach mucosa = assay: Ulcerogenic liability (ulcer index); type: in vivo; conditions: rats, 50 mg/kg dosage for three consecutive days, mean of 6 rats
Description: In this study, adult male Wister albino rats weighing 160–180 g were used. Before any experimental procedure, rats were given 14 days to acclimate. These rats were maintained in a controlled setting with food and water available. All experiments were conducted in accordance with laboratory animal care guidelines. All experimental procedures were carried out in accordance with the regulations of the Committee of Ethics for Scientific Research on Living Organisms, Faculty of Pharmacy, Nahda University, Beni-Suef (NUB). The approval number was (NUB-019–025). […] Before drug administration, rats were fasted for 18 h and then separated into four groups. The control group received a suspension of the vehicle (10% DMSO in saline was given P.O (100 mg/kg) once daily). […] Rats were given the required dose for three consecutive days. Following the last dose, the stomachs of each rat were dissected and opened via the greater curvature and rinsed with saline. For investigation, the dissected stomach was stretched with pins on a cork board. Through illuminated magnifying lenses, the stomach mucosa was examined for the existence of ulcers. Cho and Ogle’s method[45]^,[46] was used to calculate the ulcer index.

stomach = assay: Histopathological examination of stomach; type: in vivo, rats; conditions: rat, in vivo
Description: In brief, the stomachs of each animal group’s rat were fixed in 10% neutral buffered formalin for 48 h. The sections were then dehydrated, cleared, fixed in paraffin, sectioned ([…]), and stained with H&E stain.

[2] = test system: Gram-positive bacteria, Gram-negative bacteria, and yeast fungus; assay: Disc diffusion antimicrobial screening, whole panel; type: cell-based; conditions: all tested Gram-positive and Gram-negative bacteria, read-out: diameters of inhibition zones
Description: All compounds were screened for their antimicrobial activity at the Microbiology and Immunology Department, Faculty of Pharmacy, Beni-Suef University. The antimicrobial activity screening was carried out using the disc diffusion method, as described earlier, with some adjustments.
For each indicator microbe, a solution of half McFarland turbidity was prepared in sterile saline, followed by surface streaking of the strains on Mueller-Hinton agar with a sterile cotton swab. Then, sterile filter paper discs (5 mm diameter) preloaded with 100 µg of each compound were applied to the surface of the pre-inoculated plates. Then, the plates were chilled at 4 °C for 100 min before being incubated overnight at the proper temperature for microbial growth. Finally, the diameter of the inhibition zones around each disc was measured to evaluate the antimicrobial activity of the compounds. Ciprofloxacin was used as a standard antibacterial agent at a concentration of 20 µg/disc. Furthermore, DMSO-loaded discs were used as a negative control.

[3] = antimicrobial and antifungal activity; cited from earlier work

CK-MB [1]	LDH [1]	Troponin I [1]	SMILES	heart histopathology finding (heart)	Ulcer index (stomach mucosa)	Ulcer index (stomach mucosa; listed as celecoxib)	stomach histopathology finding (stomach)	zone of inhibition at 20 µg/disc [2]	MIC [3]
0.635 ± 0.065^a ng/ml	690 ± 08^a U/L	0.1500 ± 0.0420^a ng/ml	Cc1ccc(-c2cc(C(F)(F)F)nn2-c2ccc(S(N)(=O)=O)cc2)cc1 [Celecoxib, reference compound]	scattered inflamed cardiac muscle fibres with vacuolar degenerated myocytes	3.79^b	3.79	multiple complete ulcers and superficial mucosal erosions with disrupted mucous layer		
			O=C(O)c1cn(C2CC2)c2cc(N3CCNCC3)c(F)cc2c1=O [ciprofloxacin]					34 to 48 mm	< 3.90 µg/mL
